Tests used:
human OCT2 = molecular target: T1, human OCT2 (Homo sapiens, UniProt O15244); assay: Inhibition of metformin uptake in HEK-293 cells overexpressing hOCT2; settings: for Selectivity category hOCT2 versus hMATEs: comparison of IC50 for hOCT2, hMATE1, hMATE2-K; for Effect on hOCT2 activity at low concentrations (hOCT2-enhancer): low but clinically relevant concentrations (less than 10 μM)
T1 sequence (O15244 1-555): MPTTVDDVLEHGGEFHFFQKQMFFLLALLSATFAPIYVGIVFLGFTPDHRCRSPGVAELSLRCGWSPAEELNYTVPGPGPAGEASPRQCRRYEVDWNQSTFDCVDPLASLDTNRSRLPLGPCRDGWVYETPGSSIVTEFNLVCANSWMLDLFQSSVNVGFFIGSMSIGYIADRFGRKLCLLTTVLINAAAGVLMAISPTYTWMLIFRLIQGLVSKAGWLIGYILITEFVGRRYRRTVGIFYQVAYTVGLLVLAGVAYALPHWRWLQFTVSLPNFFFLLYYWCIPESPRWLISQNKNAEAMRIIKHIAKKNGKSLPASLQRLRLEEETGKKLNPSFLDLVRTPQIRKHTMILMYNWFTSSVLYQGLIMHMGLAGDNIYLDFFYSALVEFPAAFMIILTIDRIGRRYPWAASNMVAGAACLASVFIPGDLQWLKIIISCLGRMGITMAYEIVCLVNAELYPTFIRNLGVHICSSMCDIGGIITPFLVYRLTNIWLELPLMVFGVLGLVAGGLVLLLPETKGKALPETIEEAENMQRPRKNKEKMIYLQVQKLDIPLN

HEK-control cells = assay: Cisplatin accumulation in HEK-control cells; type: cell-based, human; settings: carvedilol 10 μM + cisplatin 100 μM 2 h, then 22 h normal medium
mouse Oct1 = molecular target: T2, mouse Oct1 (Mus musculus, UniProt O08966); assay: Inhibition of metformin uptake in HEK-293 cells overexpressing mouse Oct1; type: cell-based
T2 sequence (O08966 1-556): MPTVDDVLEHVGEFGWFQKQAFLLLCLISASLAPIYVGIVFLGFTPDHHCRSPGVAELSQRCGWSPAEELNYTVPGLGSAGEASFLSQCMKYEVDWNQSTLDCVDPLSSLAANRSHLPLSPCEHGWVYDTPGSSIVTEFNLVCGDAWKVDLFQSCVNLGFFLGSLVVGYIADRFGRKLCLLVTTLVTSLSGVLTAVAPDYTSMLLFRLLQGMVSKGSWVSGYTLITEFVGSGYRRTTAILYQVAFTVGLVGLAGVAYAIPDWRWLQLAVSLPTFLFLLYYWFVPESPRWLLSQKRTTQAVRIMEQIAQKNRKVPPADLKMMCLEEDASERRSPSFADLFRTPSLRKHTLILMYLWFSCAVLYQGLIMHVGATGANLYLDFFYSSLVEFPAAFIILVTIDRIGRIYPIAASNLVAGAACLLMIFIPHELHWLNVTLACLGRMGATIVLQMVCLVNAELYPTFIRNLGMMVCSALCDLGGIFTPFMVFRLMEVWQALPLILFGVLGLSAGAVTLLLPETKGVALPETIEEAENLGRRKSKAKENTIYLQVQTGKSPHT

mouse Mate1 = molecular target: T3, mouse Mate1 (Mus musculus, UniProt Q8K0H1); assay: Inhibition of metformin uptake in HEK-293 cells overexpressing mouse Mate1; type: cell-based
T3 sequence (Q8K0H1 1-567): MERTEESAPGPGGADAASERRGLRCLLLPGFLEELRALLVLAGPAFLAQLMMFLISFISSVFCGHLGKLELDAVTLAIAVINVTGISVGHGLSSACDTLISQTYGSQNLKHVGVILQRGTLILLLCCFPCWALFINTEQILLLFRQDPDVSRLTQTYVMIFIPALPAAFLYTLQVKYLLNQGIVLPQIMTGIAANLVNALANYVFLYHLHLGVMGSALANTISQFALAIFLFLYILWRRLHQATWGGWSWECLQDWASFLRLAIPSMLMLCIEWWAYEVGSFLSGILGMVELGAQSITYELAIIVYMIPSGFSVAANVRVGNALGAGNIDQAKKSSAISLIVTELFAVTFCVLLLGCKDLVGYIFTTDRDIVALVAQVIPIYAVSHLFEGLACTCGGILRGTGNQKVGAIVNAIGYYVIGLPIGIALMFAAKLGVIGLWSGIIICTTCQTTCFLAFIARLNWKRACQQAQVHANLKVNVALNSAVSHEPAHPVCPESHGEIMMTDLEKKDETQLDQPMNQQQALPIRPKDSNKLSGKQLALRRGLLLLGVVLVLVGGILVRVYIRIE

[1] = Metformin pharmacokinetics in mice with carvedilol; type: in vivo, mouse; settings: carvedilol 2 mg/kg; at 30, 45 and 60 min
HEK-hOCT2 cells [2] = assay: Cisplatin accumulation in HEK-hOCT2 cells; type: cell-based, human; settings: carvedilol 10 μM + cisplatin 100 μM 2 h, then 22 h normal medium
[3] = cited from earlier work
HEK-hOCT2 cells [4] = assay: Cisplatin cytotoxicity, cell viability by CCK-8; type: cell-based, human; settings: carvedilol 10 μM + cisplatin 100 μM 2 h, then 22 h
human MATE1 = molecular target: T4, human MATE1 (Homo sapiens, UniProt Q96FL8); assay: Inhibition of metformin uptake in HEK-293 cells overexpressing hMATE1; type: cell-based; settings: IC50 for inhibition of hMATE1, metformin 50 μM probe substrate, HEK293-hMATE1
T4 sequence (Q96FL8 1-570): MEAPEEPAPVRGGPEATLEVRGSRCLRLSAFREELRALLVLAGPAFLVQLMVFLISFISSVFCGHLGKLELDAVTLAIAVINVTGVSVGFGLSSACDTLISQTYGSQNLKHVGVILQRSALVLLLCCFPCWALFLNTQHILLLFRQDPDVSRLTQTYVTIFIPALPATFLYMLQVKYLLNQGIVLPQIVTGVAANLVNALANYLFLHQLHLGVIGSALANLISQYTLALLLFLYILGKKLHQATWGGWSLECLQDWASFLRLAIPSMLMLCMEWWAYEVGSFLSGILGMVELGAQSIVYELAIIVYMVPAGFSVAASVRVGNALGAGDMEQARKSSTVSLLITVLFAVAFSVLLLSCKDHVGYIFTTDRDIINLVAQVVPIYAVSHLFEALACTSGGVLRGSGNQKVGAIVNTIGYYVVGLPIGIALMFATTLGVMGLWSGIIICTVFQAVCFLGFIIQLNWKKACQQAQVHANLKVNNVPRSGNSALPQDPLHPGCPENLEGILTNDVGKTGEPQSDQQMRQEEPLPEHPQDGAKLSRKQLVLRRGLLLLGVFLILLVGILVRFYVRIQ

C57BL/6J mice = assay: Cisplatin-induced nephrotoxicity in mice; type: in vivo, mouse; settings: 72 h
human OCT1 = molecular target: T5, human OCT1 (Homo sapiens, UniProt O15245); assay: Inhibition of metformin uptake in HEK-293 cells overexpressing hOCT1; type: cell-based
T5 sequence (O15245 1-554): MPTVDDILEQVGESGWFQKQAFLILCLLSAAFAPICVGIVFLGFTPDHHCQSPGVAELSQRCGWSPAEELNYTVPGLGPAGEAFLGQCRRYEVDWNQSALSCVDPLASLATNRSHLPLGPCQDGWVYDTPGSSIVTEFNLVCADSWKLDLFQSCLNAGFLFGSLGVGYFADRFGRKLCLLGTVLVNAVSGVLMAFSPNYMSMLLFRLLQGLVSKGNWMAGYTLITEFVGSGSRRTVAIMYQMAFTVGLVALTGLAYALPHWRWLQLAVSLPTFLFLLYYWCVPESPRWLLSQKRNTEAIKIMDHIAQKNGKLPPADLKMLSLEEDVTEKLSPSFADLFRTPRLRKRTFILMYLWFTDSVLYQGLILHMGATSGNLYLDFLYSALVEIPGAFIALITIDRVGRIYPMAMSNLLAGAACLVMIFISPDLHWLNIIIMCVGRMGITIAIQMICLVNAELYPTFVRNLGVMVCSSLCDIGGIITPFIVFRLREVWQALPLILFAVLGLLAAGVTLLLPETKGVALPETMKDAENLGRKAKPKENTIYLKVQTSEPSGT

mouse Oct2 = molecular target: T6, mouse Oct2 (Mus musculus, UniProt O70577); assay: Inhibition of metformin uptake in HEK-293 cells overexpressing mouse Oct2; type: cell-based
T6 sequence (O70577 1-553): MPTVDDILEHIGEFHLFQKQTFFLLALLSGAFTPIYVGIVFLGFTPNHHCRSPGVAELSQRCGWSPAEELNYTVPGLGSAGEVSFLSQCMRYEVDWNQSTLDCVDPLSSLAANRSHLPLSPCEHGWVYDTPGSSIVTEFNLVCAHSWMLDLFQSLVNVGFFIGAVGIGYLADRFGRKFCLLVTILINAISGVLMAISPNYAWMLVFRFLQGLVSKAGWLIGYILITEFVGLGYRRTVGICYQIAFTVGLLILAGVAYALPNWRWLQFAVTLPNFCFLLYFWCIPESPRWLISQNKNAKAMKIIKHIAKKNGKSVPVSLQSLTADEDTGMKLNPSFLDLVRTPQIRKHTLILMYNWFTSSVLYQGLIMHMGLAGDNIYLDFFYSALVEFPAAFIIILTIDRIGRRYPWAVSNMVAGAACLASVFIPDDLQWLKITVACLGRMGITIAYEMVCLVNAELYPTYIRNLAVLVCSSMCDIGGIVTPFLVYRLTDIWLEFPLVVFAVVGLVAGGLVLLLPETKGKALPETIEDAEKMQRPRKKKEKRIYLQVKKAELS

[5] = carvedilol 2 mg/kg x2 + cisplatin 10 mg/kg

For `CCCCOc1ccc(CC(=O)NO)cc1` [Bufexamac], the “Selectivity category hOCT2 versus hMATEs” value (human OCT2) was “selective hOCT2 inhibitors”.

In the case of `C(=C\c1ccccc1)/CN1CCN(C(c2ccccc2)c2ccccc2)CC1` [Cimnasizine], the “Effect on hOCT2-mediated metformin uptake at high concentrations” value (“Effect … at high concentrations” below) (human OCT2) is reported as “could inhibit hOCT2-mediated metformin uptake” and the “Effect on hOCT2 activity at low concentrations (hOCT2-enhancer)” value (“Effect on hOCT2 activity” for short) (human OCT2) is reported as “increase hOCT2 activity”.

In the case of `CC(C)C(=O)Nc1ccc([N+](=O)[O-])c(C(F)(F)F)c1` [Flutamide], the “Selectivity category hOCT2 versus hMATEs” value (human OCT2) is reported as “selective hOCT2 inhibitors”.

In the case of `CC(C)(C)NC(=O)[C@@H]1C[C@@H]2CCCC[C@@H]2CN1C[C@@H](O)[C@H](Cc1ccccc1)NC(=O)[C@H](CC(N)=O)NC(=O)c1ccc2ccccc2n1` [Saquinavir], the “Effect … at high concentrations” value (human OCT2) is reported as “could inhibit hOCT2-mediated metformin uptake” and the “Effect on hOCT2 activity” value (human OCT2) is reported as “increase hOCT2 activity”.

In the case of `CCC(C)n1ncn(-c2ccc(N3CCN(c4ccc(OCC5COC(Cn6cncn6)(c6ccc(Cl)cc6Cl)O5)cc4)CC3)cc2)c1=O` (stereo not shown) [Itraconazole], the “Effect … at high concentrations” value (human OCT2) is reported as “could inhibit hOCT2-mediated metformin uptake” and the “Effect on hOCT2 activity” value (human OCT2) is reported as “increase hOCT2 activity”.

With `COc1ccccc1OCCNCC(O)COc1cccc2[nH]c3ccccc3c12` (stereo not shown) [Carvedilol] the “Accumulation of cisplatin in control cells” value (HEK-control cells) was 3.87 ± 0.06 ppm/mg protein, the IC50 (mouse Oct1) was 2.8 µM and the IC50 (mouse Mate1) was 67 µM. For the same compound, the “Plasma concentrations of metformin compared to vehicle” value [1] was “significantly increased”, the “Accumulation of cisplatin in HEK-hOCT2 stable cells” value (HEK-hOCT2 cells [2]) was 3.77 ± 0.02 ppm/mg protein and the “Time to peak plasma concentration” value ([3]; after oral administration) was 1—2 h. The Oral bioavailability ([3]; human, oral) was 24%, the Plasma binding ([3]; mostly bound to albumin) was “approximately 95%” and the Terminal half-life ([3]; oral administration) was 6—10 h. The “Cell viability of cisplatin-treated HEK-hOCT2 cells with co-treatment” value (HEK-hOCT2 cells [4]) was “significantly rescued”, the “Selectivity category hOCT2 versus hMATEs” value (human OCT2) was “selective hOCT2 inhibitors” and the IC50 (human MATE1) was 103 µM. The “Kidney histology (renal damage), co-administration” value (C57BL/6J mice; [5]) was “substantially ameliorated”, the “Kim-1 gene transcripts in kidney, co-administration” value (C57BL/6J mice; [5]) was “almost be brought down to the normal base” and the “Kidney histology, treatment-only group” value (C57BL/6J mice; carvedilol only) was “No visible morphological change”. For the same compound, the IC50 (human OCT1) was 6.4 µM and the IC50 (mouse Oct2) was 23.1 µM.

— publication PMC6295285 (Pharmaceutical research, 2018)
